The assay deals with IL1α release from NIH 3T3 cell transfectants. Kind of assay: Heat shock-induced release of IL1α from NIH 3T3 cell transfectants (immunoblot of conditioned media). The assay is classed as cell-based, human. The procedure: FIG. 5, comprising FIGS. 5A and 5B, depict the involvement of Cu^2+ in IL1α release. FIG. 5A is an image depicting results obtained using NIH 3T3 cells stably transfected with mIL1α-βGal. The cells were incubated for 18 hours at 37 C in the absence and presence of the Cu^2+ chelator, tetrathiomolybdate (TTM) as indicated and the untreated and treated cells either maintained at 37 C or subjected to heat shock as described in FIG. 3. The conditioned medium was evaluated for IL1α-βGal release by IL1α immunoblot analysis, and cell lysates from TTM-treated cells were used to monitor the intracellular level of IL1α-βGal expression. […] FIG. 5B is an image depicting release of IL1α-βGal in myc-S100A13 and IL1α-βGal NIH 3T3 cell cotransfectants and in insert-less vector and mIL1α-βGal NIH 3T3 cell transfectants in the presence and absence actinomycin D (10 μg/ml), as indicated, in response to heat shock. Conditioned media were processed and evaluated for IL1α-βGal immunoblot analysis as described in Tarantini et al. (2001).
Stable NIH 3T3 cell transfectants were generated accordingly with the following cDNA constructs cloned into pMEXneo (Tarantini, et al. 2001; Tarantini, et al. 1995; Tarantini, et al. 1998; LaVallee, et al. 1998; Carreira, et al. 1998; Landriscina, et al., 2001): human S100A13 with an amino-terminal fusion to a 6 Myc Tag (Myc-S100A13) (Landriscina, et al., 2001); human Myc-S100A13ΔBR (Landriscina, et al., 2001); human mIL1α (residues 113-271); human mIL1α with a carboxy-terminal fusion to a βGalactosidase tag (mIL1α-βGal) (Tarantini, et al. 2001); and pIL1α (residues 1-271) with a carboxy-terminal fusion to βGalactosidase (pIL1α-βGal) (Tarantini, et al. 2001). Recombinant human mIL1α was provided by Hoffmann-LaRoche. Recombinant human S100A13, as well as S100A13ΔBR, a S100A13 construct with the basic residue rich domain (residues 88 to 98) deleted, were generated as previously described (Landriscina, et al., 2001).
NIH 3T3 cell transfectants were grown to 70-80% confluency and prior to temperature stress, the cells were washed with serum-free DMEM. The heat shock was performed as previously described (Tarantini et al., 1995) in serum-free DMEM for 110 min at 42° C. Control cultures were incubated at 37° C. in serum-free DMEM. […] Immunoprecipitated and eluted proteins were resolved by 8% and 12% acrylamide SDS-PAGE, respectively, and evaluated by either IL1α (Tarantini, et al. 2001) or Myc (Landriscina, et al., 2001) immunoblot analysis. […] The effects of actinomycin D (Sigma Chemical Co., St. Louis, Mo.), cyclohexamide (Sigma) and tetrathiomolybdate (Sigma-Aldrich) on IL1α release were evaluated as previously reported (LaVallee et al., 1998).

Consider `[NH4+].[NH4+].[SH-].[SH-].[S]=[Mo]=[S]` [TTM, ammonium tetrathiomolybdate], for which the “concentration at which TTM inhibited release of IL1α in response to heat shock” value (NIH 3T3 cells stably transfected with mIL1α-βGal, incubated 18 hours at 37 C with TTM, then heat shock, IL1α immunoblot (FIG. 5A)) was found to be 250 nM. Besides, the “repression of release of IL1α-βGal in response to temperature stress” value (TTM introduced into the Myc-S100A13 and IL1α-βGal cotransfectant system with actinomycin D) was “able to repress”.

Source of the values: patent publication US20090123565A9, “Copper-dependent non-traditional pro-inflammatory cytokine export and methods, compositions and kits relating thereto” (Maine Medical Center Research Institute, priority 2001, published 2009).
